# Assay results taken from patent US20200062719A1, “Application of Imidazopyridine Derivatives in Regenerative Medicine” (University of Heidelberg, priority 2018, published 2020).
# Assays:
# LSD1 = biological target: T1, LSD1 (Homo sapiens, UniProt O60341); assay: LSD1 demethylase inhibition, nuclear extraction; type: biochemical; details: even at a concentration of 100 mM
# T1 construct: using the whole-cell nuclear extraction; endogenous in cells
# Source text: (§1) HMT and HDM are two major classes of enzymes, contributing to the regulation of histone methylation. Lysine-specific demethylase 1 (LSD1) and histone lysine demethylase 5 (KDM5, also known as JARID1) majorly catalyze demethylation of H3K4. A few KDM5 chemical inhibitors have been reported to inhibit demethylation of H3K4, leading to an increase of global methylated H3K4 in various cell types. The inventors tested the inhibitory effect of O4I3 on LSD1 and KDM5. KDM4 (also known as JMJD2), the HDM of H3K9 and H3K36, was also included.
# (§2) Epiquik histone demethylase (H3K4 specific) activity/inhibition assay kit (Epigentek, Biocat, Germany) was used to measure the protective effect of O4I3 and zolpidem on the methylation of H3K4. Their inhibitory effects on LSD1, KDM5s, and KDM4 were determined using Epigenase jarid demethylase activity/inhibition assay kit, Epigenase JMJD2 demethylase activity/inhibition assay kit and EpiQuik histone demethylase LSD1 activity/inhibition assay kit (Epigentek, Biocat, Germany). The total nuclear extraction was used according to manufacturer's instructions. For measuring KDM5A, KDM5B, KDM5C, and KDM5D activity, magnetic beads were used to immunoprecipitate the respective enzymes from 10^8 cells according to the manufacturer's instructions (Cell Signaling Technologies).
# KDM5D = biological target: T2, KDM5D (Homo sapiens, UniProt Q9BY66); assay: KDM5D inhibition, enzyme immunoprecipitated from cells; type: biochemical
# T2 construct: magnetic beads were used to immunoprecipitate the respective enzymes from 10^8 cells; endogenous in cells
# Source text: (§3) In mammalian cells, the KDM5 family consists of four members, namely, KDM5A (known as JARID1A), KDM5B (known as JARID1B or PLU1), KDM5C (JARID1C), and KDM5D (JARID1D or SMCY). […] Next, the inventors tested four KDM chemical inhibitors. […] The inventors detected the induction of OCT4, SOX2, and E-Cadherin expression in JIB-04-treated HFs (FIG. 18D).
# as §2
# KDM5A = biological target: T3, KDM5A (Homo sapiens, UniProt P29375); assay: KDM5A inhibition, enzyme immunoprecipitated from cells; type: biochemical
# T3 construct: magnetic beads were used to immunoprecipitate the respective enzymes from 10^8 cells; endogenous in cells
# Source text: as §3, §2
# human fibroblasts = assay: qRT-PCR of reprogramming associated genes in human fibroblasts; type: cell-based; details: human fibroblasts, O4I3 0.5 μM
# Experimental: Analyzing the effects of O4I3 on human fibroblasts, the activation of reprogramming associated genes, including an about 10-fold induction of Oct4, Nanog and Lin28, and an about 100-fold increase of Sox2 and E-Cadherin mRNA levels was detected. In particular, expression of several essential genes for reprogramming is equal to those in pluripotent stem cells, such as Esrrb, FGF2 and Sall4 (FIG. 12).
# Quantitative reverse-transcription real-time-PCR was performed using a Light Cycler 96 (Roche, Germany) following the manufacturer's protocol. Briefly, total RNA was isolated from cells using TRIzol (Qiagen, Germany) or NucleoSpin®RNA Plus (Macherey-Nagel, Germany). The same amount of RNA was used to reverse-transcriptional synthesize cDNA by using random primers ProtoScript® First Strand cDNA Synthesis Kit (NEB, Germany). qPCR was performed using the SYBR Green PCR master mix (qPCRBIO SyGreen Mix Lo-Rox, Nippon Genetics, Germany) and the primer pairs indicated below (MWG, Eurofins, Germany). Actin was used as an endogenous control. Data were normalized to the value of untreated cells showing the mean±SD of quadruplicates and are representative of at least three independent experiments.
# KDM5 = KDM5 demethylase inhibition, whole-cell nuclear extraction; type: biochemical; details: whole-cell nuclear extraction
# Source text: as §1, §2
# hiPSCs [1] = assay: Differentiation markers in hiPSCs at high concentration; type: cell-based, human; details: 10 μM
# neural stem cells = assay: Maintenance of neural stem cells, MTT viability; type: cell-based; details: starting from 1 nM
# Experimental: Neural stem cells were cultivated in SPN medium (DMEM-F12 Knockout medium containing 2% StemPro® NSC SFM, EGF (20 ng/mL) and FGF (20 ng/mL)) until cell confluence reached 80-90%. Acutase was used to get single cell suspension and washed with PBS. 20,000 cells/[…] were seeded into matrigel-coated plates using SPN medium with or without O4I3. The MTT assay was applied to determine cell viability.
# The self-renewal of multipotent neural stem cells was also tested with the compound of the current invention. Neural stem cells were cultivated in SPN medium with or without O4I3 at different final concentrations (FIG. 7). The MTT assay was applied to determine cell viability. Starting from a concentration of 1 nM O4I3 the viability of neural stem cells was increased in comparison to mock treated neural stem cells.
# hiPSCs [2] = assay: Maintenance of hiPSCs, FACS of Tra-1-81 and Oct4 over passages; type: cell-based, human; details: 50 nM O4I3, FACS
# Experimental: (§4) Since O4I3 induced sustainable expression of Oct4 and Nanog, the inventors questioned if it supports iPSC self-renewal in single cell expansion. Therefore, the viability of iPSCs, after replating Accutase®-dissociated single iPSCs, was tested in the presence or absence of O4I3. Rocki (Y-27632) was used for the first 24 h to increase iPSCs survival. A nearly 300% higher viability in cells treated with O4I3 (1 nM) was observed. Using 50 nM of O4I3 even 400% increase was observed (FIG. 2A). FACS analysis confirmed homologous expression of iPSCs markers, Tra-1-81 and Oct4, for at least 30 passages (FIG. 2B).
# iPSCs were seeded in a 6-well plate coated with Geltrex. Cells were harvested, fixed and permeabilized (if appropriately) as known in the art (Cheng et al, Mol Oncol. 2016 June; 10(6):806-24). Fixed cells were incubated with the primary antibody for 24 h at 4° C. and with the secondary antibody for 1 h at room temperature.
# hiPSCs [3] = assay: iPSC single cell expansion, viability by MTT assay; type: cell-based, human; details: versus absence of O4I3
# Experimental: as §4
# iPSC single cell expansion was performed according to a well-established protocol known in the art (Watanabe et al, Nat Biotechnol, 2007, 25(6), 681-6). Briefly, iPSCs were dissociated with Accutase® as single cell suspension and re-seeded in a Geltrex-coated 96-well plate in the presence of Rock inhibitor for the first 24 h in combination with/without O4I3. Cell viability was performed in MTT assay as disclosed elsewhere (Cheng et al, Mol Oncol. 2016 June; 10(6):806-24).
# T3 sequence (P29375 whole entry): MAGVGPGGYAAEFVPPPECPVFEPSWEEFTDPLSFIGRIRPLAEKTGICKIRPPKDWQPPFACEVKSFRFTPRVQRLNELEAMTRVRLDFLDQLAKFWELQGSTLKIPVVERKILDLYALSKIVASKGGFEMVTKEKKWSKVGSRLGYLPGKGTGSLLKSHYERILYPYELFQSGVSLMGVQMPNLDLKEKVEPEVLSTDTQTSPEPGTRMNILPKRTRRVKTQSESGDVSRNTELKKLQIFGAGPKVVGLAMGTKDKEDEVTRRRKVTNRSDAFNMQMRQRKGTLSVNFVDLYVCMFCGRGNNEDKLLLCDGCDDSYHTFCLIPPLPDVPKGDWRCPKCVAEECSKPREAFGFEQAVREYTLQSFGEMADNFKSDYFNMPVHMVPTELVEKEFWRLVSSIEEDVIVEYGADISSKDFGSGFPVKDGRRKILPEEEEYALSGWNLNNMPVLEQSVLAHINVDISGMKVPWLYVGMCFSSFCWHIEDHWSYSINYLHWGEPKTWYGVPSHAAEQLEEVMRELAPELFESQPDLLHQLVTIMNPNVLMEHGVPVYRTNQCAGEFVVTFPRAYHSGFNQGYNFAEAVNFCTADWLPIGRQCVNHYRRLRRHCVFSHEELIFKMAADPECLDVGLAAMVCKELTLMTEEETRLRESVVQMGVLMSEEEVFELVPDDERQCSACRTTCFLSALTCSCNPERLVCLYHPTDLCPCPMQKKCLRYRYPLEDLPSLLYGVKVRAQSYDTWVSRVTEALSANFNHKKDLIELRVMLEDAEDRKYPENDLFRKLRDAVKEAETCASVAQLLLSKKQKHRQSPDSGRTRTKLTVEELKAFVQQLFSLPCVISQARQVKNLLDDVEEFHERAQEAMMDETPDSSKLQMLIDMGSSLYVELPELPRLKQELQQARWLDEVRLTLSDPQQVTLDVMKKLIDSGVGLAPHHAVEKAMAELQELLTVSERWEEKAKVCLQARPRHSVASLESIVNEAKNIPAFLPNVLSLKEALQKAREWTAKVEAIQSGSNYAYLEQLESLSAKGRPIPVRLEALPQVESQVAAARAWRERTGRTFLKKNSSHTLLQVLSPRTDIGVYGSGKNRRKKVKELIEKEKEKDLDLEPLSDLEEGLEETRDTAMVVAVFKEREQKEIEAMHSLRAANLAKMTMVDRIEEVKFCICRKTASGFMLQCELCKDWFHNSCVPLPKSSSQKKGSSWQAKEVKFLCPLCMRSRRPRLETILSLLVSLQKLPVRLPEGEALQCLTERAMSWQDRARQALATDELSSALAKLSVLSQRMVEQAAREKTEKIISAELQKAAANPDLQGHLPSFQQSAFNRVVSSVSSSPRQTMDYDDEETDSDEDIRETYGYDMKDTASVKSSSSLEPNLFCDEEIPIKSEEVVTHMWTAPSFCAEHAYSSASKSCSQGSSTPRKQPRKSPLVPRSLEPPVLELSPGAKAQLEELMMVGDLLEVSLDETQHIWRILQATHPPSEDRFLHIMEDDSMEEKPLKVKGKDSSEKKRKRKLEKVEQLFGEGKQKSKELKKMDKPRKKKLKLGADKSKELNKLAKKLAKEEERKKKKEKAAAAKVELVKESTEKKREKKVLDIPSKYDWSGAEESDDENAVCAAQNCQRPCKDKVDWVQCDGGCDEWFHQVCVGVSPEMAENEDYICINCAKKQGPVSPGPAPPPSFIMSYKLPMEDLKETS
# T2 sequence (Q9BY66 whole entry): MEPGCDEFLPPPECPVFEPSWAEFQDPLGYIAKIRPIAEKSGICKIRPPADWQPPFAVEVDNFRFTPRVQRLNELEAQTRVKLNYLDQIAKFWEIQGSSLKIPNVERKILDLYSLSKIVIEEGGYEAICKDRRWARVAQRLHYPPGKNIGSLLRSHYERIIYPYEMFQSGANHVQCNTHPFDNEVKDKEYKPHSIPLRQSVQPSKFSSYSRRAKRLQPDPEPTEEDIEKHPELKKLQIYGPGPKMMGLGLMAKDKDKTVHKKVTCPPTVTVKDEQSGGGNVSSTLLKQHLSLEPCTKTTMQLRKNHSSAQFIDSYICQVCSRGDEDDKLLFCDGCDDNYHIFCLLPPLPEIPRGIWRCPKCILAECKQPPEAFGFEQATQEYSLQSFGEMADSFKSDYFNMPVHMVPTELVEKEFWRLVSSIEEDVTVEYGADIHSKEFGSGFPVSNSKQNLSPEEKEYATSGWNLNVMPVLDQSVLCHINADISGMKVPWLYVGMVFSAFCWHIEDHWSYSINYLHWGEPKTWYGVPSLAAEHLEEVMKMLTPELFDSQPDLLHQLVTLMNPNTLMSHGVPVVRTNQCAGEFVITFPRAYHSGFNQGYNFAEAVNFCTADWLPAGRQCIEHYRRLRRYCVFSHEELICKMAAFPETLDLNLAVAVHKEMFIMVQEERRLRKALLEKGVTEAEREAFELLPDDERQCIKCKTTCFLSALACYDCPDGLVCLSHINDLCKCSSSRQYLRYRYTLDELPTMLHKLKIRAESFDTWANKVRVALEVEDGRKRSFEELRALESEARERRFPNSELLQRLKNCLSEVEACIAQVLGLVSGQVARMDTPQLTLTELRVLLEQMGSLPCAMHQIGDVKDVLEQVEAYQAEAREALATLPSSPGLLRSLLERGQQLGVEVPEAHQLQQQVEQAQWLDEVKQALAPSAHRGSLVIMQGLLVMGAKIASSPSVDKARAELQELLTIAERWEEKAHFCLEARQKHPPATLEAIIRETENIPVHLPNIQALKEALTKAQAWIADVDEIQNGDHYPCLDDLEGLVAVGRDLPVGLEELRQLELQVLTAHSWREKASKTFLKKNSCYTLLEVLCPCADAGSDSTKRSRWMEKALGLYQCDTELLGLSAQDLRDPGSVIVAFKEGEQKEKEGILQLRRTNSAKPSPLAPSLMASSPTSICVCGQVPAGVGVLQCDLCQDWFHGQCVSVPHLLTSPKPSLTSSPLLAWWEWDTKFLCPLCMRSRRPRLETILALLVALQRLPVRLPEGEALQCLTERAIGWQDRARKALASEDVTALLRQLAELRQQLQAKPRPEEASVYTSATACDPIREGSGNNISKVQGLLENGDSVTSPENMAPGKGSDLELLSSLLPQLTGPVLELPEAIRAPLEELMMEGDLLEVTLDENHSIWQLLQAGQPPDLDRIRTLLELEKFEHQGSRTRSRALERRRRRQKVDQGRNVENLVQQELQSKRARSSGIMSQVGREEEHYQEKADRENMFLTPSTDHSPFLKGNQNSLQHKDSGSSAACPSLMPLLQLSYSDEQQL
smiles,measurement,setting,value
"Cc1ccc(-c2cn3cc(C)ccc3n2)cc1 [O4I3, 6-methyl-2-(p-tolyl)imidazo[1,2-a]pyridine]",inhibitory effect on LSD1,LSD1,hardly detected the inhibitory effect
same,"IC50 less potent than for KDM5A, KDM5D",KDM5D,20 fold
same,IC50,KDM5A,190 pM
same,increase of E-Cadherin mRNA levels,human fibroblasts,about 100 fold
same,increase of Sox2 mRNA levels,human fibroblasts,about 100 fold
same,induction of Lin28 mRNA,human fibroblasts,about 10 fold
same,induction of Nanog mRNA,human fibroblasts,about 10 fold
same,induction of Oct4 mRNA,human fibroblasts,about 10 fold
same,IC50,KDM5,790 pM
same,differentiation markers T and Gata4,hiPSCs [1],induction of those markers
same,viability of neural stem cells in comparison to mock treated,neural stem cells,increased
same,"homologous expression of Tra-1-81 and Oct4, number of passages",hiPSCs [2],at least 30 passages
same,higher viability of iPSCs in single cell expansion,hiPSCs [3]; 1 nM,~300%
same,higher viability of iPSCs in single cell expansion,hiPSCs [3]; 50 nM,400%
